# Experiments:
# SEC receptor [1] = assay: 125I-C105Y cell surface SEC receptor binding, Scatchard analysis; design: species or system human; settings: for Kd: 4° C.
# Method: Peptide C105Y was radio-iodinated by a modification of the chloramine T method [Hunter and Greenwood (1962) Nature 194:49] as follows. Briefly, approximately 50 μg of the C105Y peptide in 20 μl PBS was mixed with 20 μl chloramine T (120 mg/10 ml) and 1 mCi ^125 I (DuPont-New England Nuclear, Boston, Mass.). The reaction mixture was incubated for 30 seconds at room temperature and then 50 μl of sodium metabisulfite (36 mg/10 ml) was added. The labeled C105Y peptide was purified on a Sephadex G10 column (Bio-Rad) which had been blocked by application of 3 mg/ml BSA in PBS prior to the addition of the iodinated peptide. The specific radioactivity of ^125 I peptide C105Y ranged between 3,500 and 11,700 dpm/ng.
# HuH7 cells and two populations of HepG2 cells were studied. Cells were plated in 24 well tissue culture plates, allowed to become confluent, then thoroughly washed with phosphate-buffered saline containing 1 mM CaCl2 and 2.5 mM MgCl2 (Ca^2+ /Mg^2+ PBS) and incubated at 4° C. for 2 h with ^125 I-labeled ligand (e.g., C105Y) at concentrations of 12.5 to 400 nM in the absence or presence of 200 fold excess unlabeled ligand and diluted in binding medium (DMEM containing 50 mM HEPES, 0.1 mg/ml cytochrome c, 0.01% Tween 80, 2 mg/ml bovine serum albumin). The cells were then rinsed in Ca^2+ Mg^2+ PBS, homogenized in 1 N NaOH, and cell-associated radioactivity determined. Non-specific binding was determined by incubating cells with a 200 fold molar excess of cold ligand. Specific binding was defined as the difference between total and non-specific binding. Binding parameters were determined by Scatchard analysis. Binding assays were performed on all three cell lines [HuH7, HepG2 (high), and HepG2 (low)] simultaneously with the same batch of iodinated C105Y peptide so that the proper comparisons could be made.
# In FIG. 22, the specific binding (expressed as cpm/one million cells) is plotted against the concentration of iodinated C105Y ppeptide (nM). Traces are shown for the specific binding of ^125 I-C105Y to HuH7 cells (.smallcircle.), HepG2 (high) cells (.quadrature.) and HepG2 (low) cells (.diamond.). Specific binding was determined by subtracting […].
# SEC receptor [2] = assay: Binding of fluorescein labeled peptide to hepatoma cells (fluorescent cells); assay type: cell-based, human
# Method: HuH7, HepG2 (high) and HepG2 (low) cells were plated in six well plates and transfected as described above. Fluorescein labeling was carried out with fluorescein isothiocyanate, as described previously [Mann and Fish (1972) Methods of Enzymology 26:28-42]. Briefly, the C1315 peptide (145 μg) was incubated with 1 mg of fluorescein isothiocyanate for 1 hr at room temperature. Following incubation, 10 mg/ml glycine was added to destroy excess reagent, the pH was adjusted to 6.0 by the addition of 1N HCl and the labeled peptide was then purified on a Sephadex G10 column (Bio-Rad).
# Two days following transfection, cells were washed with Ca^2+ /Mg^2+ PBS, incubated with 100 nM fluorescein labeled C1315 peptide and diluted in binding buffer (DMEM containing 50 mM Hepes, 0.1 mg/ml cytochrome c, 0.01% Tween 80, 2 mg/ml bovine serum albumin) at 4° C. Individual cells were imaged on a Zeiss axiovert 35 microscope at an excitation wavelength of 493.5 nm and a measurement wavelength of 530 nm. Digital images were captured by a cooled CCD camera model CH250 for 25 seconds (Photometrics, Ltd., Tucson, Ariz.) and quantified by a Nu 2000 camera controller board (Photometrics) with a Macintosh Quadra 900 configuration. Data was processed with Oncor image software (Oncor Imaging, Rockville, Md.).
# Both HuH7 and HepG2 cell lines were transfected with the pCMV lac Z II plasmid coding for the β-galactosidase protein as a complex with the C1315 peptide carrier or using Lipofectin®, as described above; three days after transfection, the cells were harvested and β-galactosidaseactivity was determined. Cells staining blue represent cells expressing β-galactosidase; fluorescent cells represent cells which bound the fluoresceinated C105Y peptide. Cells which were counted as blue or fluorescent were intensely stained. The average % values represent the number of cells which were blue or fluorescent per 100 randomly selected cells. The results represent 6 independent experiments conducted. […]
# hepatoma cells = assay: Cell death / viability during transfection of hepatoma cells; settings: 10 fold molar excess
# Method: After addition of the complex and/or Lipofectin®, all cells were incubated at 37° C. for six hours. Cells were then rinsed with Ca^2+ /Mg^2+ PBS and fresh growth media added and incubated at 37° C. (with a change of media every 2 days) until the appropriate functional assay was performed. Competition experiments were conducted by transfecting HepG2 (high) cells with 1.11 pmol C1 315 carrier condensed DNA in the presence and absence of a 10 fold excess free C1315 peptide. All transfections were done in duplicate.
# Method for total serum cholesterol: Six adult male Watanabe rabbits (2.8-3.2 Kg of bodyweight) were used in these studies. […] In order to introduce the DNA complex into the animal, we perform a single injection of 3-10 ml of the DNA-complex solution (~400-900 mM NaCl) into the marginal ear vein of the rabbit. Approximately 1.5 ml of blood was drawn from the ear artery at 4 p.m. The determination of the concentration of serum cholesterol was performed in the Clinical Laboratory of University Hospitals of Cleveland from 300 μl of serum. At different time points following the introduction of the DNA complex, a rabbit was subjected to a liver biopsy.
compound,measurement,setting,value
CSIPPEVKFNKPFVYLI [C105Y],"binding by HuH7 cells relative to HepG2 (high), more",SEC receptor [1],1.5 fold
same,"specific binding by HepG2 (low) cells relative to HepG2 (high) cells, less",SEC receptor [1],7.5 fold
same,"specific binding by HepG2 (low) cells relative to HuH7 cells, less",SEC receptor [1],10 fold
same,Kd,"SEC receptor [1]; HepG2 (high) cells, Scatchard analysis",0.05 µM
same,Kd,SEC receptor [1]; HepG2 (low) cells,~0.0225 µM
same,Kd,SEC receptor [1]; HuH7 cells,~0.07 µM
CFLEAIPMSIPPEVKFNKPFVFLIIHRD [C1315],Average % Fluorescent Cells,SEC receptor [2]; HepG2(high),20.4 ± 11.2%
same,Average % Fluorescent Cells,SEC receptor [2]; HepG2(low),1.8 ± 1.4%
same,Average % Fluorescent Cells,SEC receptor [2]; HuH7,14.3 ± 4.0%
same,effect of excess free peptide on cell viability,hepatoma cells,no effect on cell viability
CC[C@H](C)C(=O)O[C@H]1C[C@@H](C)C=C2C=C[C@H](C)[C@H](CC[C@@H]3C[C@@H](O)CC(=O)O3)[C@H]21 [lovastatin],cholesterol concentration relative to that prior to the first gene transfer,"total serum cholesterol; rabbit #774, gene transfer followed by 10 mg per day for 10 weeks",40%
same,further reduction in the levels of cholesterol,"total serum cholesterol; rabbit #774 after gene transfer, 10 mg per day orally for 10 weeks",20%

# — US5972901A, “Serpin enzyme complex receptor--mediated gene transfer” (Case Western Reserve University, priority 1996, dated 1999)
